The values below are quoted from earlier work in patent publication US20030212138A1, “Combinations of peroxisome proliferator-activated receptor-alpha agonists and cyclooxygenase-2 selective inhibitors and therapeutic uses therefor” (Pharmacia Corporation, priority 2002, published 2003).

For this series, the system named is fibroblast growth factor-induced corneal angiogenesis. To be noted: rats; Masferrer et al. 1999.

`Cc1ccc(-c2cc(C(F)(F)F)nn2-c2ccc(S(N)(=O)=O)cc2)cc1` [Celecoxib®, 4-[5-(4-methylphenyl)-3-(trifluoromethyl)-1H-pyrazol-1-yl]benzenesulfonamide]: the “inhibition of fibroblast growth factor-induced corneal angiogenesis” value is listed as “potent inhibition”.
